Data on 7 molecules can be found in ChEMBL document CHEMBL3352669, “Tetrahydrobenzo[h][1,6]naphthyridine-6-chlorotacrine hybrids as a new family of anti-Alzheimer agents targeting β-amyloid, tau, and cholinesterase pathologies” (Eur J Med Chem, 2014).

Assay [1] concerns the target Amyloid-beta precursor protein (Homo sapiens) (UniProt P05067). Nature of the assay: Inhibition of aggregation of amyloid beta-42 (unknown origin) expressed in Escherichia coli BL21 (DE3) assessed as amyloid fibril formation at 10 uM after 24 hrs by thioflavin S fluorescence method.
Assay [2] concerns the target Microtubule-associated protein tau (Homo sapiens) (UniProt P10636). Nature of the assay: Inhibition of aggregation of tau protein (unknown origin) expressed in Escherichia coli BL21 (DE3) assessed as amyloid fibril formation at 10 uM after 24 hrs by thioflavin S fluorescence method.
A further assay has as its target Acetylcholinesterase (Homo sapiens, UniProt P22303). The assay can be described thus: Inhibition of human recombinant AChE using acetylthiocholine iodide as substrate by spectrophotometric analysis.
Another assay deals with Cholinesterase (Homo sapiens, UniProt P06276). The assay can be described thus: Inhibition of human recombinant BChE using butyrylthiocholine iodide as substrate by spectrophotometric analysis.

Molecules are shown by their SMILES.

Sequence of Amyloid-beta precursor protein (Homo sapiens) (P05067 whole entry): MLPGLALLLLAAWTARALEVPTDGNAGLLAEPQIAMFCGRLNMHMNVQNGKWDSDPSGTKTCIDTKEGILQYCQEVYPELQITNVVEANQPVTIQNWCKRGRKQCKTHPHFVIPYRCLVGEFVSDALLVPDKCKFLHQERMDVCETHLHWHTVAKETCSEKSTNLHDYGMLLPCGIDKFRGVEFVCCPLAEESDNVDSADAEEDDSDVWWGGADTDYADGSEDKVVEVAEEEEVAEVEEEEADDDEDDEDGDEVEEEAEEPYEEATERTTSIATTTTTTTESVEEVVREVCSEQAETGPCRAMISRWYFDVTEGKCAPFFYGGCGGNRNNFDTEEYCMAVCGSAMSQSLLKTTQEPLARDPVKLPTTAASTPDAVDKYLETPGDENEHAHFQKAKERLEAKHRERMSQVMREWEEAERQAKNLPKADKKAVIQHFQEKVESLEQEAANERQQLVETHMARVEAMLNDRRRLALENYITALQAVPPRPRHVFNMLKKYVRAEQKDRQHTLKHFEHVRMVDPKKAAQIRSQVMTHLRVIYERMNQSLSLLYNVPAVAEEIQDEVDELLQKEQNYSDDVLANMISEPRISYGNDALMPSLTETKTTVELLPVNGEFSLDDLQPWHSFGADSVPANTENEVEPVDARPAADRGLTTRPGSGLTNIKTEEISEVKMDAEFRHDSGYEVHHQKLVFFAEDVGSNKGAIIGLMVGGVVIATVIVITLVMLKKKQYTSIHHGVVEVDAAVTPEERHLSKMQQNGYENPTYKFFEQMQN
Sequence of Microtubule-associated protein tau (Homo sapiens) (P10636 whole entry): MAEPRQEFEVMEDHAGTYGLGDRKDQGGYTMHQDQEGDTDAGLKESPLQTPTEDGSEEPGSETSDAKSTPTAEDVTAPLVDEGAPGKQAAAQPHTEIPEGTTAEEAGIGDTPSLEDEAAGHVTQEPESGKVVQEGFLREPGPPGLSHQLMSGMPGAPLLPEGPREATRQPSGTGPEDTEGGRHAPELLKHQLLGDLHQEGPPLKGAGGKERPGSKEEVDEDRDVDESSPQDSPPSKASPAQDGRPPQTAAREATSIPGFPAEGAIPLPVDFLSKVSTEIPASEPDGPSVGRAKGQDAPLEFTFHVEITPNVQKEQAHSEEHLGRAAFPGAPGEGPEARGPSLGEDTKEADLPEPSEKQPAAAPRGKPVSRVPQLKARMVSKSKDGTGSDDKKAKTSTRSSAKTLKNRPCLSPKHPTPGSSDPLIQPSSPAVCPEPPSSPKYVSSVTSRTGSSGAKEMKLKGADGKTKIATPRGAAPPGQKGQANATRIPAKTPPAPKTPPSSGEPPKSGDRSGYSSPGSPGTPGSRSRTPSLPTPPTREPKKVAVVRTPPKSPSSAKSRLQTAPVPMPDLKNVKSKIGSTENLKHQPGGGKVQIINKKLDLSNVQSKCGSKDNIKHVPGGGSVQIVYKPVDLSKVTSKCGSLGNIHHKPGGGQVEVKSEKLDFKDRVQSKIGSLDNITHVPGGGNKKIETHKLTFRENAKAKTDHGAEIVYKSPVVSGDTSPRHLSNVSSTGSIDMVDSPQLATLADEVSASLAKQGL
Sequence of Acetylcholinesterase (P22303 whole entry): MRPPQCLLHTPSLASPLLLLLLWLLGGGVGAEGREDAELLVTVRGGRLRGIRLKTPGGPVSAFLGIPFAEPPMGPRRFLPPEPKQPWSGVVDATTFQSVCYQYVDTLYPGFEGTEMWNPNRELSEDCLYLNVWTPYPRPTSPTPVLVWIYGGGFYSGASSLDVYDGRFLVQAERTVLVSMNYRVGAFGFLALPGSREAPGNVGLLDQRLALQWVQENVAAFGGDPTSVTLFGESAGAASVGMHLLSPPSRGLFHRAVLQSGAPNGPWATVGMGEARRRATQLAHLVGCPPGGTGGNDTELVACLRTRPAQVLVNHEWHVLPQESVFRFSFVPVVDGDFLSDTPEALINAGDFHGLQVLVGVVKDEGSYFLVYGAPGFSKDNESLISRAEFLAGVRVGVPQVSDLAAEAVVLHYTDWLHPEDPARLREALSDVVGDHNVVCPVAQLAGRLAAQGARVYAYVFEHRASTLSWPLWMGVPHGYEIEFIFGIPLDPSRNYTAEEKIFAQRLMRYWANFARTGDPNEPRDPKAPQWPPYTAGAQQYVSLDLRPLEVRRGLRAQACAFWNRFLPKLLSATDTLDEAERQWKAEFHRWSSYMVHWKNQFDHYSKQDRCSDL
Sequence of Cholinesterase (P06276 whole entry): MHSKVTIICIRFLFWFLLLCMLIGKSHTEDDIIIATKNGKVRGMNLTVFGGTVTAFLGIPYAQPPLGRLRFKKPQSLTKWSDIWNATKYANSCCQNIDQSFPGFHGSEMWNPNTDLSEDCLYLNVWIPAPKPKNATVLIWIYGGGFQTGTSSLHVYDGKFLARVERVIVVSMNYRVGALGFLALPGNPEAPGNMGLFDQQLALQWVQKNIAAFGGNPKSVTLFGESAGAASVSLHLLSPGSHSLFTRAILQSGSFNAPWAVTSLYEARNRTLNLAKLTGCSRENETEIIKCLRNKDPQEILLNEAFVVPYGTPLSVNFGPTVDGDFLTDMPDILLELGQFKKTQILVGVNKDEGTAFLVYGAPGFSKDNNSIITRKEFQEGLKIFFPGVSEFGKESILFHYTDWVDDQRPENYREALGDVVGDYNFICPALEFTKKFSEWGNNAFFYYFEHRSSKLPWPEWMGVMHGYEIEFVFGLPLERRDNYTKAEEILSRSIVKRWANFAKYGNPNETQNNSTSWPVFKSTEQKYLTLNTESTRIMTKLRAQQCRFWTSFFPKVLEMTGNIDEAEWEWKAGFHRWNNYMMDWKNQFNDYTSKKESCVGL

As a reminder, the inhibition is the relative decrease from the control value, in per cent. With `Nc1c2c(nc3cc(Cl)ccc13)CCCC2`, the inhibition amounted to 11% in assay [1] and 1.4% in assay [2].

In general, IC50 refers to the concentration at which inhibition is half-maximal. For the molecule `O=C(NCCCCNc1c2c(nc3cc(Cl)ccc13)CCCC2)c1ccc2nc(-c3ccc(Cl)cc3)c3c(c2c1)NCCC3`, the IC50 worked out at 14.2 nM at Acetylcholinesterase (read-out: IC50) and 205 nM on Cholinesterase (read-out: IC50). Besides, the inhibition in assay [1] was found to be 55.8%; in assay [2] it was 58.9%.

With `O=C(NCCCCCCCCNc1c2c(nc3cc(Cl)ccc13)CCCC2)c1ccc2nc(-c3ccc(Cl)cc3)c3c(c2c1)OCCC3`, the results for the IC50 on Acetylcholinesterase (read-out: IC50) and at Cholinesterase (read-out: IC50) were 19.3 nM and 223 nM, respectively. Further, the inhibition in assay [1] was 54.6%; in assay [2], 37.8%.

With `O=C(NCCCNc1c2c(nc3cc(Cl)ccc13)CCCC2)c1ccc2nc(-c3ccc(Cl)cc3)c3c(c2c1)NCCC3`, the results for the half-inhibitory concentration (IC50) on Acetylcholinesterase (read-out: IC50) and on Cholinesterase (read-out: IC50) were 0.006 nM and 120 nM, respectively. Also, the inhibition in assay [1] came to 52.5%; in assay [2], 40.7%.

In the case of `O=C(NCCCCCNc1c2c(nc3cc(Cl)ccc13)CCCC2)c1ccc2nc(-c3ccc(Cl)cc3)c3c(c2c1)NCCC3`, the 50% inhibitory concentration (IC50) on Acetylcholinesterase (read-out: IC50) stood at 14.2 nM; at Cholinesterase (read-out: IC50), 337 nM. In addition, the inhibition in assay [1] is 54.3%; in assay [2], 57.7%.

On to `O=C(NCCCCCCCCNc1c2c(nc3cc(Cl)ccc13)CCCC2)c1ccc2nc(-c3ccc(Cl)cc3)c3c(c2c1)NCCC3`, for which the inhibition was found to be 77.5% in assay [1] and 68.7% in assay [2].

Regarding `CCOC(=O)c1ccc2nc(-c3ccc(Cl)cc3)c3c(c2c1)OCCC3`, the half-maximal inhibitory concentration (IC50) entry on Acetylcholinesterase and at Cholinesterase was “Not Active” each time. Besides, the inhibition is 41.8% in assay [1] and 27.9% in assay [2].
